Legend:
ERalpha = target: T1, ERalpha (Homo sapiens, UniProt P03372); experiment: ER alpha FP binding assay; conditions: ER beta versus ER alpha, FP binding assays
T1 construct: […]; His6 (leader […]G) (N)
T1 sequence (P03372 with tags, fused parts or gaps): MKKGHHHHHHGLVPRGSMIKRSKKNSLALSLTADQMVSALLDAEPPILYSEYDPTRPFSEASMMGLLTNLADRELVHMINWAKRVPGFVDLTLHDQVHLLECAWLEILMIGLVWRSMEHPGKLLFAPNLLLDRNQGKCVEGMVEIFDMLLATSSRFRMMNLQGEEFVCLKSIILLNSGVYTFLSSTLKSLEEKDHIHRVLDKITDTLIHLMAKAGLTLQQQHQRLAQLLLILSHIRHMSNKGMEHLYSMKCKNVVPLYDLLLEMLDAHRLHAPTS
Experimental: (§1) Assay Buffer (AB) (50 mM MOPES pH 7.5, 50 mM NaF, 2.5 mM CHAPs), in deionized water, 5 mM 1,4 dithiothreitol (DTT) added on day of the experiment. The appropriate amount of AB was placed in a plastic tube, adding solid DTT before the assay was run. AB with DTT was distributed to plastic tubes. We have found use of plastic to be important vs glass. A final concentration of 6 nM ERbeta protein was added to the tube followed by gentle inversion. A final concentration of 1.5 nM ER FP ligand (Fluormone™ EL Red 200 nM in 20 mM Tris, 90% Methanol purchased from Invitrogen catalogue no P3030) was added to the same tube followed by gentle inversion. This was allowed to sit for 5-10 minutes before adding it to the 384 assay plate. Similar protocol was used for ERalpha with a final concentration of 4 nM ERalpha and 1.5 nM ER FP ligand.
(§2) 384 plates containing test compounds dissolved in 100% DMSO at 1 mM were serially diluted (1:3) by a Beckman FX. Serial diluted test compounds were added, […], to the assay plates with a maximum final concentration of 10 uM. Once the assay plates were ready, 10 uL of the above reagents were added to the appropriate set of plates with the Thermo combi. These plates were then sealed and place at room temperature for 3 hours.
The plates were then placed on the Molecular Devices Analyst and counted (excitation 535 nm, emission 590 nm with a 561 Dichroic mirror). […]

ERbeta protein = target: T2, ERbeta protein (Homo sapiens, UniProt Q92731); experiment: ER beta FP binding assay; conditions: 6 nM ERbeta protein, 1.5 nM ER FP ligand (Fluormone EL Red), 3 hours at room temperature; read-out: pIC50 in the ER beta FP binding assay (converted)
T2 construct: […]; His6 (leader […]) (N)
Experimental: as §1, §2
The plates were then placed on the Molecular Devices Analyst and counted (excitation 535 nm, emission 590 nm with a 561 Dichroic mirror). Data was normalized to control then fitted to a non-linear least squares algorithm (see below).
pIC50 Calculation y=a+((b−a)/(1+(10^x/10^c)^d) Results
The amino acid sequence of human ER beta used in this assay is […]

T2 sequence (Q92731 with tags, fused parts or gaps): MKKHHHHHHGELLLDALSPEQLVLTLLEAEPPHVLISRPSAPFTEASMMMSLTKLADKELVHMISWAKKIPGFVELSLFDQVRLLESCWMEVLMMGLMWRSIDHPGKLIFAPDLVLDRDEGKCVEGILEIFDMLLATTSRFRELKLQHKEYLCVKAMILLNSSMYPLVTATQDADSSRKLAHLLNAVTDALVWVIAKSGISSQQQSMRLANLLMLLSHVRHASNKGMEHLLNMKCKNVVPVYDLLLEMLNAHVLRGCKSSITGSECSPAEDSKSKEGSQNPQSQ

Row | SMILES | selectivity versus ER alpha (ERalpha) [fold] | IC50 (ERbeta protein) [nM]
1 | Oc1ccc(-n2ncc3c(O)cccc32)cc1F [Example 1, 1-(3-Fluoro-4-hydroxyphenyl)-1H-indazol-4-ol] | > 10 | < 100
2 | N#Cc1cc(O)c2cnn(-c3ccc(O)c(F)c3)c2c1 [Example 3, 1-(3-Fluoro-4-hydroxyphenyl)-4-hydroxy-1H-indazole-6-carbonitrile] |  | < 100
3 | Oc1ccc(-n2ncc3c(O)cc(F)cc32)cc1F [Example 4, 6-Fluoro-1-(3-fluoro-4-hydroxyphenyl)-1H-indazol-4-ol] |  | < 100
4 | Oc1ccc(-n2ncc3c(O)cc(Br)cc32)cc1F [Example 5, 6-Bromo-1-(3-fluoro-4-hydroxyphenyl)-1H-indazol-4-ol] |  | < 100
5 | C=Cc1cc(O)c2cnn(-c3ccc(O)c(F)c3)c2c1 [Example 6, 6-Ethenyl-1-(3-fluoro-4-hydroxyphenyl)-1H-indazol-4-ol] |  | < 100
6 | CCc1cc(O)c2cnn(-c3ccc(O)c(F)c3)c2c1 [Example 7, 6-Ethyl-1-(3-fluoro-4-hydroxyphenyl)-1H-indazol-4-ol] |  | < 100
7 | Oc1ccc(-n2ncc3c(O)cc(Cl)cc32)cc1F [Example 8, 6-Chloro-1-(3-fluoro-4-hydroxyphenyl)-1H-indazol-4-ol] |  | < 100
8 | Cc1cc(O)c2cnn(-c3ccc(O)c(F)c3)c2c1 [Example 9, 1-(3-Fluoro-4-hydroxyphenyl)-6-methyl-1H-indazol-4-ol] |  | < 100
9 | Oc1ccc(-n2ncc3c(O)c(F)ccc32)cc1F [Example 10, 5-Fluoro-1-(3-fluoro-4-hydroxyphenyl)-1H-indazol-4-ol] |  | < 100
10 | Oc1ccc(-n2ncc3c(O)c(Br)ccc32)cc1F [Example 11, 5-Bromo-1-(3-fluoro-4-hydroxyphenyl)-1H-indazol-4-ol] |  | < 100
11 | Oc1ccc(-n2ncc3c(O)ccc(F)c32)cc1F [Example 13, 7-Fluoro-1-(3-fluoro-4-hydroxyphenyl)-1H-indazol-4-ol] |  | < 100
12 | Oc1ccc(-n2ncc3c(O)ccc(Cl)c32)cc1F [Example 14, 7-Chloro-1-(3-fluoro-4-hydroxyphenyl)-1H-indazol-4-ol] |  | < 100
13 | Oc1ccc(-n2ncc3c(O)cccc32)cc1Cl [Example 17, 1-(3-Chloro-4-hydroxyphenyl)-1H-indazol-4-ol] |  | < 100

— patent publication US7960563B2, “Indazoles used to treat estrogen receptor beta mediated disorders” (Glaxo Group Limited, priority 2007, dated 2011)
